# Assay results: ChEMBL document CHEMBL3714716, “Modulators of the relaxin receptor 1” (2015)
# Activity calls are given as the source filed them. The rule behind the calls is not given here.
# How the values were obtained:
# [1] = Tmax in C57/BL6 mouse plasma at 30 mg/kg, po administered as single dose; format: ADME, organism-based
# Heart [2] = assay: AUMClast in C57/BL6 mouse heart at 30 mg/kg, po administered as single dose; format: ADME, organism-based; settings: in vivo
# [3] = biological target: T1, Uncharacterized protein (Sus scrofa) (UniProt F1RW91); assay: Agonist activity at pig RXFP1 receptor assessed as stimulation of cAMP production incubated for 30 mins by TR-FRET based HTRF assay; format: functional
# T1 sequence (whole entry): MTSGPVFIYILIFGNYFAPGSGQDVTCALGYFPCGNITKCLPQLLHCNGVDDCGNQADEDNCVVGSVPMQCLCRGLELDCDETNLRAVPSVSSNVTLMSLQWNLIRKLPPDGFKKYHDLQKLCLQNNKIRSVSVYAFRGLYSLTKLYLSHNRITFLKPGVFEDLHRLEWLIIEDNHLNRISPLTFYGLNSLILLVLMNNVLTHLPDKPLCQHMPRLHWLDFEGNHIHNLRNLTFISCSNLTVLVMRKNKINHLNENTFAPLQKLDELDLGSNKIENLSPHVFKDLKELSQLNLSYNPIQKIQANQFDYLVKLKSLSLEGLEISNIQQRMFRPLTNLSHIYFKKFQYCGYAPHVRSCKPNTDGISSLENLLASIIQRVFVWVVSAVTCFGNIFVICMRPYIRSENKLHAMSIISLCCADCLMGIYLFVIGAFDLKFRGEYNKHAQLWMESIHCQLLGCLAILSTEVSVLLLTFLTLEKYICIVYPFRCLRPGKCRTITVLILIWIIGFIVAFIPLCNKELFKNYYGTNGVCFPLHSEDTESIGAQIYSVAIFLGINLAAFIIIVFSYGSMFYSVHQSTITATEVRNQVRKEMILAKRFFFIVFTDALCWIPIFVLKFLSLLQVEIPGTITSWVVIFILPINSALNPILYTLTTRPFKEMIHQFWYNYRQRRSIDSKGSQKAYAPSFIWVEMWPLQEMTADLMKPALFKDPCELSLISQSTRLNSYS
# Heart [4] = assay: AUMClast in C57/BL6 mouse heart at 3 mg/kg, iv administered as single dose; format: ADME, organism-based; settings: in vivo
# Plasma [5] = assay: AUMClast in C57/BL6 mouse plasma at 3 mg/kg, iv administered as single dose; format: ADME, organism-based; settings: in vivo
# [6] = biological target: T2, Relaxin receptor 1 (Macaca mulatta) (UniProt I2CTQ4); assay: Agonist activity at monkey RXFP1 receptor assessed as stimulation of cAMP production incubated for 30 mins by TR-FRET based HTRF assay; format: functional
# T2 sequence (whole entry): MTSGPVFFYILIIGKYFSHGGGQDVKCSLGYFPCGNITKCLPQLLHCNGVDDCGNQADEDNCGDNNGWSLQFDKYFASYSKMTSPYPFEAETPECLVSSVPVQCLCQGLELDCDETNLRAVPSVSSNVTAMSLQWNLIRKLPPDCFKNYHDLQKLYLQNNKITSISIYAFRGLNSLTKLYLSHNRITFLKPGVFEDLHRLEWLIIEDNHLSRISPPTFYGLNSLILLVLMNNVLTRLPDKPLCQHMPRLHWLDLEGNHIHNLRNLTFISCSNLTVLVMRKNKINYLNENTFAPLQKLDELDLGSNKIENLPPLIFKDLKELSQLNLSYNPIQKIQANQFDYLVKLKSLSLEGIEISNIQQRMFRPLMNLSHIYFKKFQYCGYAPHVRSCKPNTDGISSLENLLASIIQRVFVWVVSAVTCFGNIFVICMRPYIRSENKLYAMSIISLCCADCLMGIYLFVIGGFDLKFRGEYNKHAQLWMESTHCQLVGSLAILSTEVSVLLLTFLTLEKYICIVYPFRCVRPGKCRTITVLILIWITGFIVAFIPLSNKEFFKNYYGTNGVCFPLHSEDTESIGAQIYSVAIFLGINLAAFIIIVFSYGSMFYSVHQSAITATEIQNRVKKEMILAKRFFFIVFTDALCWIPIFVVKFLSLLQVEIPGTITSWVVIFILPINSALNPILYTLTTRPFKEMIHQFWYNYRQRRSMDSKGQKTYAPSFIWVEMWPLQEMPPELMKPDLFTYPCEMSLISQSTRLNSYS
# [7] = Cmax in C57/BL6 mouse plasma at 30 mg/kg, po administered as single dose; format: ADME, organism-based; parameters: dose 30 mg/kg, route oral
# [8] = biological target: Relaxin receptor 2 (Mus musculus) (UniProt Q91ZZ5); assay: Agonist activity at mouse RXFP2 receptor expressed in HEK293 cells assessed as stimulation of cAMP production incubated for 30 mins by TR-FRET based HTRF assay; format: functional, cell-based
# Plasma [9] = assay: AUMClast in C57/BL6 mouse plasma at 30 mg/kg, po administered as single dose; format: ADME, organism-based; settings: in vivo
# [10] = Initial plasma concentration in C57/BL6 mouse plasma at 3 mg/kg, iv administered as single dose; format: ADME, organism-based
# [11] = Tmax in C57/BL6 mouse heart at 30 mg/kg, po administered as single dose; format: ADME, organism-based
# [12] = biological target: T3, Relaxin receptor 1 (Mus musculus) (UniProt Q6R6I7); assay: Agonist activity at mouse RXFP1 receptor M10 Ile646Val and Leu647Val mutant expressed in HEK293 cells assessed as stimulation of cAMP production incubated for 30 mins by TR-FRET based HTRF assay; format: functional, cell-based
# T3 sequence (whole entry): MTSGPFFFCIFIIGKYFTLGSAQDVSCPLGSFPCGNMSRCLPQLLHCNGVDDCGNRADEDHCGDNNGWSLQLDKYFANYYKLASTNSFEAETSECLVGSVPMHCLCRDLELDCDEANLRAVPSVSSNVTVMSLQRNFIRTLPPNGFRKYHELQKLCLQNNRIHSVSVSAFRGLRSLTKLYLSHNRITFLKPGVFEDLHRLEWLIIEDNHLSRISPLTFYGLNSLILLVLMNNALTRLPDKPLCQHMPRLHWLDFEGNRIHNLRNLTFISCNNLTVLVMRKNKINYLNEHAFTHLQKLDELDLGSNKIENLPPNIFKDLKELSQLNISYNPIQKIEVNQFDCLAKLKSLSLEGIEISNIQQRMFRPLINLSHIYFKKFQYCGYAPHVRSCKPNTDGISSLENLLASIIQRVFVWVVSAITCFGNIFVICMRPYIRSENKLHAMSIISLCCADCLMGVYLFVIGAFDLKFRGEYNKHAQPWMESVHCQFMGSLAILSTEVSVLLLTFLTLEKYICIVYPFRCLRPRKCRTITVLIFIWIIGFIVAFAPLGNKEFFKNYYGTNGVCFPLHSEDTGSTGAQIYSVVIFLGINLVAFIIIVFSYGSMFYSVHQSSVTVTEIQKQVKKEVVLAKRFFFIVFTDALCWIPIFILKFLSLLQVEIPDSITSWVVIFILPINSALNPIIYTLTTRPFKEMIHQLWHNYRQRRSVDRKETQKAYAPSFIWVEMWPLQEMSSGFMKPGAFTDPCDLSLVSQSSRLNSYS
# [13] = biological target: T3, Relaxin receptor 1 (Mus musculus); assay: Agonist activity at mouse RXFP1 receptor expressed in HEK293 cells assessed as stimulation of cAMP production incubated for 30 mins by TR-FRET based HTRF assay; format: functional, cell-based
# [14] = biological target: T3, Relaxin receptor 1 (Mus musculus); assay: Agonist activity at mouse RXFP1 receptor M11 Asp659Gly and Ser660Thr mutant expressed in HEK293 cells assessed as stimulation of cAMP production at 66 uM incubated for 30 mins by TR-FRET based HTRF assay relative to relaxin; format: functional, cell-based; parameters: scale not given: the % may be the effect or the level left
# Chain of Relaxin receptor 2 (Mus musculus) (Q91ZZ5 whole entry): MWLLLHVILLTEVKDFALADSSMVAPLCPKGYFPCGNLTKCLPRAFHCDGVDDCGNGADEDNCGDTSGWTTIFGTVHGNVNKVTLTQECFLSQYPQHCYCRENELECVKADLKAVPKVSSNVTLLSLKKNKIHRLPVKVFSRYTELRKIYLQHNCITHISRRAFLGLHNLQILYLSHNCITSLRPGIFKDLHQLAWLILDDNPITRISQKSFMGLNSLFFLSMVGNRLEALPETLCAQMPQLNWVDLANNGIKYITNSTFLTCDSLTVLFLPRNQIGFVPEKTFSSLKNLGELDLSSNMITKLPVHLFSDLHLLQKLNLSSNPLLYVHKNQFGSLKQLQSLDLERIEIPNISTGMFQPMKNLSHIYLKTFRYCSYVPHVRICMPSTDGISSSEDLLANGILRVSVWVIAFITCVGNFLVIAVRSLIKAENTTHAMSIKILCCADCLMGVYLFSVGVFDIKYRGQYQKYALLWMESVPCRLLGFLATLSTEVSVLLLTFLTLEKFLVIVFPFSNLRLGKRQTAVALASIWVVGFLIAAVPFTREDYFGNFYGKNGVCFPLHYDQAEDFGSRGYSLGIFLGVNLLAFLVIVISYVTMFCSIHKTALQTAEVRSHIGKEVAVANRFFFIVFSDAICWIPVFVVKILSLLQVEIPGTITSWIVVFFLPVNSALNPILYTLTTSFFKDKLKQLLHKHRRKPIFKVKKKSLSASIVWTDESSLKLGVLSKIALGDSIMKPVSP
smiles,measurement,setting,value
CC(C)Oc1ccccc1C(=O)Nc1ccccc1C(=O)Nc1cccc(S(=O)(=O)C(F)(F)F)c1,Tmax,[1],0.5 h
same,AUMClast,Heart [2],5780 hr.hr.ng/ml
same,Activity,[3],Active
same,AUMClast,Heart [4],28300 hr.hr.ng/ml
same,AUMClast,Plasma [5],3110 hr.hr.ng/ml
same,Activity,[6],Active
same,Cmax,[7],306 ng/mL
same,Activity,[8],inactive
same,AUMClast,Plasma [9],2990 hr.hr.ng/ml
same,C0,[10],499 ng/mL
same,Tmax,[11],1.5 h
same,Activity,[12],inactive
same,Activity,[13],inactive
same,Activity,[14],44.4%
